In patent US20100130737A1, “Regulating Agent of GPR34 Receptor Function” (TAKEDA PHARMACEUTICAL COMPANY LIMITED, priority 2005, published 2010):

What was measured:
human GPR34 = human GPR34 (Homo sapiens, UniProt Q9UPC5); experiment: Human GPR34 antagonist activity indicated by changes in intracellular calcium concentration (FLIPR); format: cell-based; parameters: expressed in transfected cells; host or cells: CHO cells (human GPR34CHO line) stably transfected with pCR3.1 human lung Gα16; conditions: CHO cells expressing human GPR34/Gα16, against 2 μM lysoPS final concentration, Fluo-3AM
Sequence of human GPR34 (Q9UPC5 whole entry): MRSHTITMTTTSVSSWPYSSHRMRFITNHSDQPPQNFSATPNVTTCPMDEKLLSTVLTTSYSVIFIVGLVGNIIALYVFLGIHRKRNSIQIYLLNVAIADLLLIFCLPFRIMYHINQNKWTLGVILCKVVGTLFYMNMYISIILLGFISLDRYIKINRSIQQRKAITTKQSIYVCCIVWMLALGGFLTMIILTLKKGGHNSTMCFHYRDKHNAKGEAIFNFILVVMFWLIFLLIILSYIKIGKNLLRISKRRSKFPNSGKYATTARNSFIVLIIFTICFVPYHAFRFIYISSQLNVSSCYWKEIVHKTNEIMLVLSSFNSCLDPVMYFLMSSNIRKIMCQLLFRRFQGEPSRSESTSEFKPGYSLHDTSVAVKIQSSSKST
Procedure: CHO cells expressing human GPR34/Gα were diluted to 3×10^4/100 μl in cell culture medium [nucleic acid-free Minimum Essential Alpha Medium (Invitrogen) containing 10% dialyzed fetal bovine serum (Invitrogen) 0.5 mg/ml Geneticin (Invitrogen), penicillin and streptomycin (Invitrogen)], dispensed 100 μl per well into a Black walled 96-well plate (Costar), and cultured overnight in a CO2 incubator. Changes in intracellular calcium concentration were measured with a FLIPR (Molecular Device) by the methods described below.
50 μg of Fluo-3AM (Dojindo) was dissolved in 21 μl of DMSO (Dojindo), an equal amount of 20% pluronic acid (Molecular Probes) was added and mixed, and this was added to 10.6 ml of assay buffer [prepared by adding 20 ml of 1 M HEPES (pH 7.4, Dojindo) to HBSS (Invitrogen), and then adding 10 ml of a solution obtained by dissolving 710 mg of Probenecid (Sigma) in 5 ml of 1 N NaOH and then adding and mixing 5 ml of the HBSS/HEPES solution)] with 105 μl of fetal bovine serum added thereto to prepare a fluorescent dye solution. The medium was removed from the cell plate, 100 μl per well of the fluorescent dye solution was immediately poured in, and the cells were cultured for 1 hour in a CO2 incubator to incorporate the fluorescent dye into the cells. After culture, the cells were washed with the aforementioned assay buffer. The compound was dissolved in DMSO (Wako Pure Chemical), diluted with DMSO as necessary, added to the aforementioned assay buffer to the target concentration and poured into the plate. To measure antagonist activity, 8 μM lysophosphatidyl serine (lysoPS, Alexis) solution (2 μM final concentration during reaction) was poured into the plate, which was set in the FLIPR. Following these preliminaries, the agonist effect was measured in the FLIPR by measuring changes in intracellular calcium concentration up to 180 seconds after addition of the sample, and after 200 seconds lysoPS was added and the antagonist effect was measured. In the case of the agonist effect, the EC50 value of the added compound was calculated from the dose reaction curve using changes in fluorescent strength from 0 to 180 seconds after the start of the reaction. In the case of the antagonist effect, the IC50 was calculated from the dose reaction curve using changes in maximum fluorescent strength after 200 to 380 seconds of reaction time. The data was analyzed using “GraphPad PRISM4”.

| Structure (SMILES) | melting point | IC50 (human GPR34) [µM] |
| --- | --- | --- |
| O=C(N[C@@H](Cc1ccc(OCc2ccccc2)cc1)C(=O)O)c1ccc2nc(-c3ccc(Cl)cc3)cn2c1 [Example E25, O-Benzyl-N-{[2-(4-chlorophenyl)imidazo[1,2-a]pyridin-6-yl]carbonyl}tyrosine] | 278 to 280 °C | ≤ 1 |
| O=C(N[C@@H](Cc1ccc(OCc2ccccc2)cc1)C(=O)O)c1cn2nc(-c3ccc(Cl)cc3)ccc2n1 [Example E3, O-Benzyl-N-{[6-(4-chlorophenyl)imidazo[1,2-b]pyridazin-2-yl]carbonyl}tyrosine] | 242 to 243 °C | ≤ 1 |
| O=C(N[C@@H](Cc1ccc(OCc2ccccc2)cc1)C(=O)O)c1cn2cc(-c3ccc(Cl)cc3)ccc2n1 [Example E1, O-Benzyl-N-{[6-(4-chlorophenyl)imidazo[1,2-a]pyridin-2-yl]carbonyl}tyrosine] | 270 to 271 °C | ≤ 1 |
| O=C(N[C@@H](Cc1ccc(OCc2ccccc2)cc1)C(=O)O)c1cc2cc(-c3ccc(Cl)cc3)ccc2o1 [Example C148, O-Benzyl-N-{[5-(4-chlorophenyl)-1-benzofuran-2-yl]carbonyl}tyrosine] | 250 to 251 °C | ≤ 1 |
| O=C(N[C@@H](Cc1ccc(OCc2ccccc2)cc1)C(=O)O)c1cn2nc(C#Cc3ccccc3)ccc2n1 [Example E22, O-Benzyl-N-{[6-(phenylethynyl)imidazo[1,2-b]pyridazin-2-yl]carbonyl}tyrosine] | 224 to 227 °C | ≤ 1 |
| CN(C(=O)c1cn2cc(-c3ccc(Cl)cc3)ccc2n1)[C@@H](Cc1ccc(OCc2ccccc2)cc1)C(=O)O [Example E12, O-Benzyl-N-{[6-(4-chlorophenyl)imidazo[1,2-a]pyridin-2-yl]carbonyl}-N-methyltyrosine] | 216 °C | ≤ 1 |
| CS(=O)(=O)NC(=O)[C@H](Cc1ccc(OCc2ccccc2)cc1)NC(=O)c1cn2cc(-c3ccc(Cl)cc3)ccc2n1 [Example E23, O-Benzyl-Nα-{[6-(4-chlorophenyl)imidazo[1,2-a]pyridin-2-yl]carbonyl}-N-(methylsulfonyl)tyrosinamide] | 232 °C | ≤ 1 |
| O=C(N[C@@H](Cc1ccc(OCc2ccccc2)cc1)C(=O)O)c1cn2nc(SCc3ccccc3)ccc2n1 [Example E54, O-Benzyl-N-{[6-(benzylthio)imidazo[1,2-b]pyridazine-2-yl]carbonyl}tyrosine] | 178 to 179 °C | ≤ 1 |
| O=C(N[C@@H](Cc1ccc(OCc2ccccc2)cc1)C(=O)O)c1cc2cc(-c3ccc(Cl)cc3)ccc2[nH]1 [Example C165, O-Benzyl-N-{[5-(4-chlorophenyl)-1H-indol-2-yl]carbonyl}tyrosine] | 239 to 240 °C | ≤ 1 |
| O=C(N[C@@H](Cc1ccc(OCc2ccccc2)cc1)C(=O)O)c1nc2ccc(/C=C/c3ccccc3)cc2[nH]1 [Example C144, O-Benzyl-N-({6-[(E)-2-phenylethenyl]-1H-benzimidazol-2-yl)carbonyl)tyrosine] | 247 °C (dec.) | ≤ 1 |
| Cc1cc(-c2ccc(Cl)cc2)cn2cc(C(=O)N[C@@H](Cc3ccc(OCc4ccccc4)cc3)C(=O)O)nc12 [Example E27, O-Benzyl-N-{[6-(4-chlorophenyl)-8-methylimidazo[1,2-a]pyridin-2-yl]carbonyl}tyrosine] | 249 to 250 °C | ≤ 1 |
| O=C(N[C@@H](Cc1ccc(OCc2ccccc2)cc1)C(=O)O)c1cc2cc(-c3ccc(Cl)cc3)ccc2[nH]c1=O [Example C146, O-Benzyl-N-{[6-(4-chlorophenyl)-2-oxo-1,2-dihydroquinolin-3-yl]carbonyl}tyrosine] | 298 to 299 °C | ≤ 1 |
| O=C(N[C@@H](Cc1ccc(OCc2ccccc2)cc1)C(=O)O)c1cn2nc(/C=C/c3ccc(Cl)cc3)ccc2n1 [Example E29, O-Benzyl-N-({6-[(E)-2-(4-chlorophenyl)ethenyl]imidazo[1,2-b]pyridazin-2-yl}carbonyl)tyrosine] | 256 to 257 °C | ≤ 1 |
| O=C(N[C@@H](Cc1ccc(NCc2ccccc2)cc1)C(=O)O)c1cn2cc(-c3ccc(Cl)cc3)ccc2n1 [Example E5, 4-(Benzylamino)-N-([6-(4-chlorophenyl)imidazo[1,2-a]pyridin-2-yl]carbonyl}phenylalanine] | 260 °C | ≤ 1 |
| O=C(N[C@@H](Cc1ccc(OCc2ccccc2)cc1)C(=O)O)c1cn2cccc(OCc3ccc(Cl)cc3)c2n1 [Example E28, O-Benzyl-N-({8-[(4-chlorobenzyl)oxy]imidazo[1,2-a]pyridin-2-yl}carbonyl)tyrosine] | 210 °C | ≤ 1 |
| O=C(/C=C/c1cccc(-c2ccc(Cl)cc2)c1)N[C@@H](Cc1ccc(OCc2ccccc2)cc1)C(=O)O [Example D1, O-Benzyl-N-[(2E)-3-(4′-chlorobiphenyl-3-yl)propa-2-enoyl]tyrosine] | 194 to 195 °C | ≤ 1 |
| O=C(N[C@@H](Cc1ccc(OCc2ccccc2)cc1)C(=O)O)c1cc2ccc(-c3ccc(Cl)cc3)cc2o1 [Example C143, O-Benzyl-N-{[6-(4-chlorophenyl)-1-benzofuran-2-yl]carbonyl}tyrosine] | 170 to 171 °C | ≤ 1 |
| O=C(N[C@@H](Cc1ccc(OCc2ccccc2)cc1)C(=O)O)C1=Cc2ccc(-c3ccc(Cl)cc3)cc2SC1 [Example C145, O-Benzyl-N-{[7-(4-chlorophenyl)-2H-thiochromene-3-yl]carbonyl}tyrosine] | 225 to 227 °C | ≤ 1 |
| O=C(N[C@@H](Cc1ccc(OCc2ccccc2)cc1)C(=O)O)c1cc2cc(C#Cc3ccccc3)ccc2s1 [Example C139, O-Benzyl-N-{[5-(phenylethynyl)-1-benzothiophene-2-yl]carbonyl}tyrosine] | 198 to 199 °C | ≤ 1 |
| O=C(N[C@@H](Cc1ccc(OCc2ccccc2)cc1)C(=O)O)c1nc2ccc(-c3ccc(Cl)cc3)cn2c1Cl [Example E37, O-Benzyl-N-{[3-chloro-6-(4-chlorophenyl)imidazo[1,2-a]pyridin-2-yl]carbonyl}tyrosine] | 242 to 244 °C | ≤ 1 |
| O=C(N[C@@H](Cc1ccc(OCc2ccccc2)cc1)C(=O)O)c1cn2c(-c3ccc(Cl)cc3)cccc2n1 [Example E9, O-Benzyl-N-{[5-(4-chlorophenyl)imidazo[1,2-a]pyridin-2-yl]carbonyl}tyrosine] | 218 °C | ≤ 1 |
| O=C(N[C@@H](Cc1ccc(OCc2ccccc2F)cc1)C(=O)O)c1cn2ccc(-c3ccc(Cl)cc3)cc2n1 [Example E47, N-{[7-(4-Chlorophenyl)imidazo[1,2-a]pyridin-2-yl]carbonyl}-O-(2-fluorobenzyl)tyrosine] | 250 to 252 °C | ≤ 1 |
| CC(C)Oc1ccc(-c2ccc3nc(C(=O)N[C@@H](Cc4ccc(OCc5ccccc5)cc4)C(=O)O)cn3c2)cc1 [Example E45, O-Benzyl-N-{[6-(4-isopropoxyphenyl)imidazo[1,2-a]pyridin-2-yl]carbonyl}tyrosine] | 263 °C (dec.) | ≤ 1 |
| O=C(N[C@@H](Cc1ccc(OCc2ccc(F)cc2)cc1)C(=O)O)c1cn2ccc(-c3ccc(Cl)cc3)cc2n1 [Example E49, N-{[7-(4-Chlorophenyl)imidazo[1,2-a]pyridin-2-yl]carbonyl}-O-(4-fluorobenzyl)tyrosine] | 255 to 257 °C | ≤ 1 |
| Cc1ccc(/C=C/c2ccc3nc(C(=O)N[C@@H](Cc4ccc(OCc5ccccc5)cc4)C(=O)O)cn3c2)cc1 [Example E42, O-Benzyl-N-({6-[(E)-2-(4-methylphenyl)ethenyl]imidazo[1,2-a]pyridin-2-yl}carbonyl) tyrosine] | 266 to 267 °C | ≤ 1 |
| Cc1c(C(=O)N[C@@H](Cc2ccc(OCc3ccccc3)cc2)C(=O)O)oc2ccc(-c3ccc(Cl)cc3)cc12 [Example C142, O-Benzyl-N-{[5-(4-chlorophenyl)-3-methyl1-benzofuran-2-yl]carbonyl}tyrosine] | 209 to 210 °C | ≤ 1 |
| O=C(/C=C/c1ccc(-c2ccc(Cl)cc2)cc1)N[C@@H](Cc1ccc(OCc2ccccc2)cc1)C(=O)O [Example D2, O-Benzyl-N-[(2E)-3-(4′-chlorobiphenyl-4-yl)propa-2-enoyl]tyrosine] | 253 to 254 °C | ≤ 1 |
